# Measurements reported in US9867811B2, “Method of treating atherosclerosis in high triglyceride subjects” (NOVARTIS AG, priority 2011, dated 2018).
# Like-named read-outs stand apart in the source and are kept apart here.
# Assays:
# [1] = molecular target: T1, CETP (Homo sapiens, UniProt P11597); experiment: In vitro CETP activity assay in human plasma (serum pools of differing triglyceride level); format: biochemical; conditions: human serum pool
# T1 construct: Human serum samples were obtained from the Novartis Institutes for BioMedical Research donor program; tissue Novartis donor program; Bioreclamation (Westbury, N.Y.); Uniglobe (Reseda, Calif.); host or cells: pooled human donor serum
# T1 sequence (P11597 18-493): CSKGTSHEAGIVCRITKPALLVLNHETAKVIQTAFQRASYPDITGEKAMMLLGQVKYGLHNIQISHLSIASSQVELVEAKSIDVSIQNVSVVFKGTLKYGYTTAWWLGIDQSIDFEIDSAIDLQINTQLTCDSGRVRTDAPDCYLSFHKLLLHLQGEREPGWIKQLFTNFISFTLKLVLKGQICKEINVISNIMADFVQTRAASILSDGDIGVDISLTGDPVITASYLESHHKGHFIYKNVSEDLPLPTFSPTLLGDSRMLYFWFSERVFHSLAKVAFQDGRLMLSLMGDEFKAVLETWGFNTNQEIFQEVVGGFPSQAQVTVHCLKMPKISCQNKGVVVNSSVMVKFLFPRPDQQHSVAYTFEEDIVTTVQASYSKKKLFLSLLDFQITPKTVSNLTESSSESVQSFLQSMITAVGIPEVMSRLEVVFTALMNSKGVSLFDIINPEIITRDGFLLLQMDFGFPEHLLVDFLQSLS
# Experimental: Pro-apoA-1 containing microemulsion as a donor particle was prepared following previous report (J. Biol. Chem., 280:14918-22). Glyceryl trioleate (500 ug, Sigma-Aldrich, Cat. No. T7140), 3-sn-phosphatidylcholine (4680 ug, Sigma, Cat. No. P2772), and cholesteryl BODIPY FL 012 (2 mg, Invitrogen, CA, Cat. No. C-3927MP) were dissolved in 1.5 mL of chloroform. The solution was evaporated, and residual solvent was removed under vacuum for more than 1 hr at room temperature. The dried lipid mixture was dissolved in 7 ml of the assay buffer (50 mM Tris-HCl (pH 7.4) containing 150 mM NaCl and 2 mM EDTA) and sonicated in water bath for 1 hr. The solution was split into two tubes of 3.5 ml each. Each tube was sonicated at 50° C. with a microtip (MICROSON™ ULTRASONIC CELL DISRUPTOR, Misonix, Farmingdale, N.Y.) at output power 006 for 10 min (every other 25 seconds). The solution was cooled to 40° C. and 400 ug of pro-apoA-1 was added to each tube (total volume of 4 mL). Then, the solution was sonicated at output power 004 for 20 min (every other 30 seconds). Final Concentration: Glyceryl Tiroleate: 62.5 ug/ml, PC: 585 ug/ml, Bodipy CE: 250 ug/ml, Pro-apoA-1: 100 ug/ml. Centrifuge solution at 5200×g for 5 minutes and store the supernatant at 4′C.
# Human serum samples were obtained from the Novartis Institutes for BioMedical Research donor program (normal triglyceride samples) or purchased from Bioreclamation (Westbury, N.Y.) or Uniglobe (Reseda, Calif.). General requirements for human serum donors included: male gender, 20-55 years of age, not currently on a lipid altering medication, non-fasting at time of blood collection, and a total cholesterol level between 200-300 mg/dL. Donor samples were selected primarily on the basis of serum triglyceride level, using the following classifications: normal triglycerides (<150 mg/dL); high triglycerides (300-500 mg/dL); and very high triglycerides (750-1200 mg/dL). A total of 4 individual serum samples from each classification were used in these experiments. For each of the 3 triglyceride classifications, two serum sample pools were prepared. The mean plasma triglyceride concentrations (mg/dL) for the pools were: Normal: 101.35; High: 347.5; Very high 1, 868.45; Very high 2, 1269.35.
# Donor solution is prepared by a dilution of donor microemulsion with assay buffer (1.7 ul donor+8.3 ul Buffer). Human serum (25 μL), assay buffer (14 μL) and 50× test compound dissolved in 100% dimethylsulfoxide (1 μL) are added to each well of 384 well black, clear-bottom plate (NUNC. Thermo Fisher #242764). The reaction is started by the addition of donor solution (10 μL) into each well. Fluorescence intensities are measured every 10 min at 37° C. with excitation wave length of 485 nm and emission wavelength of 515 nm over an 80 minute period, using a SpectraMax M5 from Molecular Devices (Sunnyvale, Calif.). The CETP activity (RFU/min) is defined as the change of fluorescence intensity from 40 to 70 min. Percent CETP inhibition is calculated as follows: ((100% Act−Wellcmpnd)/100% Act))*100. IC50 values were calculated with GraphPad Prism 5 software.
# [2] = system: CETP; experiment: Ex vivo CETP activity in plasma of hamsters (saline or Triton WR-1339 treated); conditions: hamster
# Experimental: Nine- to ten-week-old, male golden Syrian hamsters were purchased from Japan SLC Inc. (Shizuoka, Japan). Animals underwent a more than 1-week acclimation period under the following conditions: 8:00/20:00 light/dark cycle, room temperature 23±2° C. […] During this time, animals received filtered (0.5 μm) water and a standard chow diet ad libitum.
# Whole blood samples were collected using a heparin-washed syringe (Heparin sodium injection “Ajinomoto”; Ajinomoto, Tokyo, Japan) from the abdominal vein by venipuncture under isoflurane (Abbott Japan Co. Ltd.) inhalant anesthesia. After centrifugation at 15,000 rpm for 10 min at 4° C., heparinized plasma was prepared and stored at −80° C. until use.
# CETP activity (RFU/min) was defined as the change in fluorescence intensity from 30 to 90 min.
# The effect of an acute increase of plasma triglycerides in vivo (acute increase in triglyceride-rich particles) on the ability of Torcetrapib to alter plasma CETP activity, triglyceride and total cholesterol levels was investigated. Torcetrapib at doses of 3, 10 or 30 mg/kg or vehicle was administered once by gavage to hamsters fed a standard chow diet.
# Compound or vehicle was administered once by gavage to hamsters fed a standard chow diet.
# [3] = system: CETP; experiment: Ex vivo plasma CETP activity assay with exogenously added compound (maximum inhibition); format: biochemical; conditions: 10 μM, hamster plasma (80% plasma)
# Experimental: Plasma CETP activity ex vivo was determined as followed: 50 μL of hamster plasma (final 80% plasma) was mixed with 10 μL of donor solution diluted with assay buffer composed of 50 mM Tris-HCl (pH7.4) containing 150 mM NaCl and 2 mM EDTA in a 96-well half area black flat bottom plate (Cat. No. 3686, Corning, Corning, N.Y.). Fluorescence intensity was measured every 15 min at an excitation wave length of 485 nm and an emission wavelength of 535 nm for 120 min at 37° C. using ARVO SX+L (PerkinElmer, Wellesley, Mass.). CETP activity (RFU/min) was defined as the change in fluorescence intensity from 30 to 90 min.
# [4] = TG = 101.35 mg/dL (normal), read-out: CETP IC50 (nM) TG = 101.35 mg/dL
# [5] = TG = 374.5 mg/dL (high), read-out: CETP IC50 (nM) TG = 374.5 mg/dL
# [6] = TG = 868.45 mg/dL (very high 1), read-out: CETP IC50 (nM) TG = 868.45 mg/dL
# [7] = TG = 1269.35 mg/dL (very high 2), read-out: CETP IC50 (nM) TG = 1269.35 mg/dL
smiles,measurement,setting,value
CC[C@@H]1C[C@H](N(Cc2cc(C(F)(F)F)cc(C(F)(F)F)c2)c2ncc(-c3cnn(C)c3)cn2)C[C@H](CC)N1C(=O)O[C@H]1C[C@H](C(=O)O)C1 [Example 17],IC50,[1]; [4],114 nM
same,IC50,[1]; [5],62.7 nM
same,IC50,[1]; [6],40.2 nM
same,IC50,[1]; [7],29.6 nM
CC[C@@H]1C[C@H](N(Cc2cc(C(F)(F)F)cc(C(F)(F)F)c2)c2ncc(-c3cnn(C)c3)cn2)C[C@H](CC)N1C(=O)O[C@H]1CC[C@H](C(=O)O)CC1 [Example 19],IC50,[1]; [4],71.9 nM
same,IC50,[1]; [5],116 nM
same,IC50,[1]; [7],540 nM
Cn1nnc(N(Cc2cc(C(F)(F)F)cc(C(F)(F)F)c2)Cc2cc3cc(F)c(F)cc3nc2N2CCC[C@@H]2[C@H]2CC[C@H](C(=O)O)CC2)n1 [Example 49],"Inhibition of CETP activity, lower dose group, Triton WR-1339 group","[2]; oral gavage: Torcetrapib 5 mg/kg, Anacetrapib 1.5 mg/kg, Example 49 1.5 mg/kg, Example 8 0.75 mg/kg, Triton WR-1339 100 mg/kg i.v., not significant vs vehicle",26%
same,"Inhibition of CETP activity, lower dose group, saline group","[2]; oral gavage: Torcetrapib 5 mg/kg, Anacetrapib 1.5 mg/kg, Example 49 1.5 mg/kg, Example 8 0.75 mg/kg, saline i.v.",63%
same,"Inhibition of CETP activity, higher dose group, Triton WR-1339 group","[2]; oral gavage: Torcetrapib 10 mg/kg, Anacetrapib 3 mg/kg, Example 49 3 mg/kg, Example 8 1.5 mg/kg, Triton WR-1339 100 mg/kg i.v.",38%
same,"Inhibition of CETP activity, higher dose group, saline group","[2]; oral gavage: Torcetrapib 10 mg/kg, Anacetrapib 3 mg/kg, Example 49 3 mg/kg, Example 8 1.5 mg/kg, saline i.v.",77%
same,"Maximum inhibition of CETP activity, compound exogenously added, Triton WR-1339 group",[3]; Triton WR-1339 group,~100%
same,"Maximum inhibition of CETP activity, compound exogenously added, saline group",[3]; saline group,~100%
same,IC50,[1]; [4],22.1 nM
same,IC50,[1]; [5],42.7 nM
same,IC50,[1]; [6],37.1 nM
same,IC50,[1]; [7],46.4 nM
Cc1cc(C)c2c(c1)[C@@H](N(Cc1cc(C(F)(F)F)cc(C(F)(F)F)c1)c1nnn(C)n1)CCCN2C[C@H]1CC[C@H](C(=O)O)CC1 [Example 53],IC50,[1]; [4],48.7 nM
same,IC50,[1]; [5],49.8 nM
same,IC50,[1]; [6],54.4 nM
same,IC50,[1]; [7],92.3 nM
CCN(C[C@H]1CC[C@H](CC(=O)O)CC1)c1ccc(C(F)(F)F)cc1CN(c1ncc(OCCS(C)(=O)=O)cn1)[C@@H](C)c1cc(C(F)(F)F)cc(C(F)(F)F)c1 [Example 57A],IC50,[1]; [4],301 nM
same,IC50,[1]; [5],155 nM
same,IC50,[1]; [6],91.7 nM
same,IC50,[1]; [7],29.4 nM
CCN(C[C@H]1CC[C@H](CC(=O)O)CC1)c1ccc(C(F)(F)F)cc1CN(c1ncc(OCCS(C)(=O)=O)cn1)[C@H](C)c1cc(C(F)(F)F)cc(C(F)(F)F)c1 [Example 57B],IC50,[1]; [4],669 nM
same,IC50,[1]; [5],1300 nM
same,IC50,[1]; [6],2300 nM
same,IC50,[1]; [7],2700 nM
CCN(C[C@H]1CC[C@H](CC(=O)O)CC1)c1cc(C)c(C(F)(F)F)cc1CN(Cc1cc(C(F)(F)F)cc(C(F)(F)F)c1)c1nnn(C)n1 [Example 58],IC50,[1]; [4],82.2 nM
same,IC50,[1]; [5],151 nM
same,IC50,[1]; [6],280 nM
same,IC50,[1]; [7],372 nM
